{"source": "patent USRE50096E1", "about": "“Nanoemulsion compositions of taxoid drugs, and methods for the use thereof to target cancer cells and cancer stem cells” (TargaGenix, Inc., priority 2016, dated 2024)", "key": {"[1]": {"test_system": "human PANC-1 pancreatic tumor xenograft", "assay": "PANC-1 pancreatic tumor xenograft in SCID mice", "type": "in vivo, RPCI SCID mice", "conditions": "for complete remissions: mouse, in vivo", "excerpt": "This experiment compared a q7dx3 with a q3dx3 schedule for PX and DHA-SBT-1214 using a human PANC-1 pancreatic tumor xenograft in RPCI SCID mice."}, "[2]": {"test_system": "H460 human non-small cell lung tumor xenograft", "assay": "H460 non-small cell lung tumor xenograft in SCID mice", "conditions": "for tumor growth delay: at (about) MTD"}, "[3]": {"test_system": "paclitaxel-resistant, Pgp(+) DLD1 human colon tumor xenograft", "assay": "DLD1 human colon tumor xenograft in SCID mice"}, "[4]": {"test_system": "human CFPAC-1 ductal pancreatic adenocarcinoma xenograft", "assay": "CFPAC-1 pancreatic adenocarcinoma xenograft in SCID mice", "conditions": "for tumor growth delay as compared to vehicles: mouse, in vivo"}, "[5]": {"test_system": "H460 human non-small cell lung tumor xenograft", "conditions": "mouse, in vivo"}, "DLD-1 spheroids": {"test_system": "DLD-1 spheroids", "assay": "Colon cancer stem cell 3D spheroids, DLD-1", "type": "cell-based, human", "protocol": "(§1) In another example, stem-cell enriched populations of colon cancer cells were selected from three invasive colon cancer cell lines, HCT116, HT29, and DLD-1. The populations were grown as 3D multicellular spheroids.\nDLD-1: CD4, CDH2, COL1A1, DLL1, DTX1, IGF1, FGF3, FZD1, JAG1, KRT15, MSX1, NCAM1 and NOTCH1 (Botchkina, et al., 2010)."}, "HT29 spheroids": {"test_system": "HT29 spheroids", "assay": "Colon cancer stem cell 3D spheroids, HT29", "type": "cell-based, human", "protocol": "as §1\nHT29: ACAN, ALPI, BMP3, CD3D, CD4, CD8A, CD8B, CDH2, COL2A1, COL9A1, DHH, DLL1, DLL3, DTX1, FGF1, FGF3, FZD1, GDF2, IGF1, MME, MYOD, NCAM1, NEUROG2, S100B, SOX2, and TERT;"}, "[6]": {"test_system": "drug resistant cancer cells, expressing MDR phenotypes", "conditions": "cited from earlier work"}, "CD133+ PPT2 cells": {"test_system": "CD133+ PPT2 cells", "assay": "Stemness gene expression in PPT2 cells (PCR array, Western blot)", "type": "cell-based, human", "protocol": "Experiments were carried out with a patient-derived cancer stem cell line for prostate cancer, PPT2 (Botchkina 2013, Rowehl 2014). The cell line PPT2 was generated from a patient-derived prostate cancer tumor. […] The PPT2 cell line was serially propagated as NOD/SCID mice tumor xenografts, floating 3D spheroids and type I collagen-adherent cultures. According to the ATCC report (ID number 002872), the PPT2 cells were unique human cells not contaminated with any known established cell lines. Although phenotype of the CSC-enriched cultures was dynamic due to the dual nature of the CSCs (i.e., ability to self-renew and to generate committed progenitors), the PPT2 cells retained a relatively stable phenotype, even up to 8 weeks after MACS-CD133^+ cell sorting and culturing on type I collagen coated surfaces in serum-free medium. […] Both nuclear and cytoplasmic fractions of the PPT2 cells expressed c-Myc, whereas other pluripotency markers (Oct-4 and Sox-2) were detected only in nuclear fraction. […]\nTo characterize possible drug induced alterations in stemness gene expression, CD133^+ PPT2 cells were analyzed before and after treatment with a combination of SBT-1214 and CMC 2.24, a chemically-modified curcumin. […]"}, "tubulin": {"test_system": "tubulin", "conditions": "cited from earlier work"}, "[7]": {"test_system": "drug resistant (Pgp+) colon tumor xenografts", "conditions": "mouse, in vivo; cited from earlier work"}, "HCT116 spheroids": {"test_system": "HCT116 spheroids", "assay": "Colon cancer stem cell 3D spheroids, HCT116", "type": "cell-based, human", "protocol": "as §1\nHCT116: SOX1, RPL13A, BMP1, BMP3, NEUROG2, GJB1, GJA1, ASCL2, CTNNA1, GDF2, ALPI, S100B, CD8B1, ACTB, CCND1, FGF1, PARD6A, DVL1, GDF3, ISL1, CD3D, MME, FGFR1, RB1, AIN1, ALDH1A1, CD8A, PPARD, FZD1, NUMB and ABCG2;"}, "[8]": {"conditions": "80 mg/kg dose on days 5, 8, and 11"}}, "note": "Read-outs that look alike come from different tables or passages of the source.", "data": [{"smiles": "CC/C=C\\C/C=C\\C/C=C\\C/C=C\\C/C=C\\C/C=C\\CCC(=O)O[C@@H](C(=O)O[C@H]1C[C@@]2(O)[C@@H](OC(=O)c3ccccc3)[C@@H]3[C@]4(OC(C)=O)CO[C@@H]4C[C@H](O)[C@@]3(C)C(=O)[C@H](OC(=O)C3CC3)C(=C1C)C2(C)C)[C@H](C=C(C)C)NC(=O)OC(C)(C)C", "note": "[DHA-SBT-1214]", "values": [{"measurement": "maximum tolerated dose (MTD)", "setting": "[1]; 80 mg/kg x 3 inj", "value": 240, "unit": "mg/kg total dosage"}, {"measurement": "toxic death", "setting": "[1]; 300 mg/kg total dose", "value": "one toxic death"}, {"measurement": "tumor growth delay", "setting": "[1]; both schedules, q7dx3 and q3dx3", "value": "> 90", "unit": "days"}, {"measurement": "complete remissions", "setting": "[1]", "value": "achieved complete remissions"}, {"measurement": "tumor growth delay", "setting": "[2]", "value": 55, "unit": "days"}, {"measurement": "MTD", "setting": "[2]; mouse, in vivo", "value": "~240", "unit": "mg/kg total dose"}, {"measurement": "tolerability", "setting": "[2]; mouse, in vivo", "value": "clearly better tolerated than SBT-1214"}, {"measurement": "complete regression of the DLD-1 tumor", "setting": "[3]; [8]", "value": "5 of 5"}, {"measurement": "tumor growth delay", "setting": "[3]; [8]", "value": "> 187", "unit": "days"}, {"measurement": "weight loss", "setting": "[4]; 240 mg/kg or 300 mg/kg total dose", "value": "negligible"}]}, {"smiles": "CC/C=C\\C/C=C\\C/C=C\\C/C=C\\C/C=C\\C/C=C/CCC(=O)O[C@@H](C(=O)O[C@H]1C[C@@]2(O)[C@@H](OC(=O)c3ccccc3)C3[C@](C)(C(=O)[C@H](OC(C)=O)C(=C1C)C2(C)C)[C@@H](O)C[C@H]1OC[C@@]31OC(C)=O)[C@@H](NC(=O)c1ccccc1)c1ccccc1", "note": "(stereo partly shown) [DHA-paclitaxel, reference compound]", "values": [{"measurement": "tumor growth delay", "setting": "[2]", "value": 3, "unit": "days"}, {"measurement": "MTD", "setting": "[5]", "value": 240, "unit": "mg/kg total dose"}, {"measurement": "tumor growth delay as compared to vehicles", "setting": "[4]", "value": "only minor tumor growth delay"}]}, {"smiles": "CC(=O)O[C@@]12CO[C@@H]1C[C@H](O)[C@@]1(C)C(=O)[C@H](OC(=O)C3CC3)C3=C(C)[C@@H](OC(=O)[C@H](O)[C@H](C=C(C)C)NC(=O)OC(C)(C)C)C[C@@](O)([C@@H](OC(=O)c4ccccc4)[C@H]21)C3(C)C", "note": "[SBT-1214]", "values": [{"measurement": "growth of the secondary spheroids", "setting": "DLD-1 spheroids; 100 nM for 48 h", "value": "marked suppression"}, {"measurement": "cytotoxicity in spheroids", "setting": "DLD-1 spheroids; 3D multicellular spheroids", "value": "effectively induced cytotoxicity"}, {"measurement": "stemness-associated genes", "setting": "DLD-1 spheroids; gene list", "value": "downregulated"}, {"measurement": "growth of the secondary spheroids", "setting": "HT29 spheroids; 100 nM for 48 h", "value": "marked suppression"}, {"measurement": "cytotoxicity in spheroids", "setting": "HT29 spheroids; 3D multicellular spheroids", "value": "effectively induced cytotoxicity"}, {"measurement": "stemness-associated genes", "setting": "HT29 spheroids; gene list", "value": "downregulated"}, {"measurement": "tumor growth delay", "setting": "[2]", "value": 34, "unit": "days"}, {"measurement": "MTD", "setting": "[2]; mouse, in vivo", "value": "~120", "unit": "mg/kg total dose"}, {"measurement": "potency relative to paclitaxel", "setting": "[6]", "value": "2-3 orders of magnitude"}, {"measurement": "expression of p21 and p53", "setting": "CD133+ PPT2 cells", "value": "induced expression"}, {"measurement": "c-Myc and Sox2 in nuclear extracts (Western blot)", "setting": "CD133+ PPT2 cells; CD133+ and bulk PPT2 cells", "value": "moderate down-regulation"}, {"measurement": "time to polymerize tubulin", "setting": "tubulin", "value": "a matter of minutes"}, {"measurement": "long-term regression and tumor growth delay", "setting": "[7]", "value": 167, "unit": "days"}, {"measurement": "tumor growth delay", "setting": "[7]", "value": "> 187", "unit": "days"}, {"measurement": "tumor regression", "setting": "[7]", "value": "complete regression in all surviving mice"}, {"measurement": "growth of the secondary spheroids", "setting": "HCT116 spheroids; 100 nM for 48 h", "value": "marked suppression"}, {"measurement": "cytotoxicity in spheroids", "setting": "HCT116 spheroids; 3D multicellular spheroids", "value": "effectively induced cytotoxicity"}, {"measurement": "stemness-associated genes", "setting": "HCT116 spheroids; gene list", "value": "downregulated"}, {"measurement": "weight loss", "setting": "[4]; until day 20, 120 mg/kg total dose", "value": "< 4", "unit": "%"}]}, {"smiles": "CC(=O)O[C@H]1C(=O)[C@@]2(C)[C@H]([C@H](OC(=O)c3ccccc3)[C@]3(O)C[C@H](OC(=O)[C@H](O)[C@@H](NC(=O)c4ccccc4)c4ccccc4)C(C)=C1C3(C)C)[C@]1(OC(C)=O)CO[C@@H]1C[C@@H]2O", "note": "[paclitaxel, reference compound]", "values": [{"measurement": "complete remissions", "setting": "[1]", "value": "no complete remissions"}, {"measurement": "tumor growth delay", "setting": "[1]; q3dx3 schedule", "value": 13, "unit": "days"}, {"measurement": "tumor growth delay", "setting": "[1]; q7dx3 schedule", "value": 18, "unit": "days"}, {"measurement": "tumor growth delay", "setting": "[2]", "value": 8, "unit": "days"}, {"measurement": "MTD", "setting": "[2]; mouse, in vivo", "value": 75, "unit": "mg/kg total dose"}, {"measurement": "efficacy against tumor xenograft", "setting": "[3]; s.c. xenograft", "value": "totally ineffective"}, {"measurement": "time to polymerize tubulin", "setting": "tubulin", "value": "hours"}, {"measurement": "tumor growth delay as compared to vehicles", "setting": "[4]", "value": "only minor tumor growth delay"}]}]}
